Where two headings read alike, the source gives them in different places.
Columns and labels:
[1] = system: B. bifidum MIMBb23sg DSM 32708; experiment: Antibiotic MIC by microdilution analysis (ISO, 2010); assay type: cell-based, Bifidobacterium bifidum; conditions: for MIC: Bifidobacterium bifidum
bifidobacteria = conditions: limit values provided for bifidobacteria (EFSA, 2012); cited from earlier work
[2] = DSM32708, microdilution analysis, ISO 2010, read-out: MIC of MIMBb23sg

Row | Compound | MIC [1, 2] | EFSA limit values (bifidobacteria) | MIC of MIMBb23sg ([1]; microdilution analysis, ISO 2010) | MIC ([1]; DSM32708, read-out: MIC of MIMBb23sg)
1 | CC1(C)S[C@@H]2[C@H](NC(=O)[C@H](N)c3ccccc3)C(=O)N2[C@H]1C(=O)O [ampicillin] | 0.25 µg/mL | 2 µg/mL | – | –
2 | gentamicin | – | 64 µg/mL | 32 µg/mL | –
3 | CN(C)[C@@H]1C(O)=C(C(N)=O)C(=O)[C@@]2(O)C(O)=C3C(=O)c4c(O)cccc4[C@@](C)(O)[C@H]3C[C@@H]12 [tetracycline] | 1 µg/mL | – | – | –
4 | CC[C@H]1OC(=O)[C@H](C)[C@@H](O[C@H]2C[C@@](C)(OC)[C@@H](O)[C@H](C)O2)[C@H](C)[C@@H](O[C@@H]2O[C@H](C)C[C@H](N(C)C)[C@H]2O)[C@](C)(O)C[C@@H](C)C(=O)[C@H](C)[C@@H](O)[C@]1(C)O [erythromycin] | 0.25 µg/mL | 1 µg/mL | – | –
5 | O=C(N[C@H](CO)[C@H](O)c1ccc([N+](=O)[O-])cc1)C(Cl)Cl [chloramphenicol] | 2 µg/mL | 4 µg/mL | – | –
6 | NC[C@H]1O[C@H](O[C@H]2[C@H](O)[C@@H](O[C@H]3O[C@H](CO)[C@@H](O)[C@H](N)[C@H]3O)[C@H](N)C[C@@H]2N)[C@H](O)[C@@H](O)[C@@H]1O [kanamycin] | 128 µg/mL | – | – | –
7 | CCC[C@@H]1C[C@@H](C(=O)N[C@@H]([C@H]2O[C@H](SC)[C@H](O)[C@@H](O)[C@H]2O)[C@H](C)Cl)N(C)C1 [clindamycin] | 0.25 µg/mL | – | – | –
8 | CN[C@H](CC(C)C)C(=O)N[C@H]1C(=O)N[C@@H](CC(N)=O)C(=O)N[C@H]2C(=O)N[C@H]3C(=O)N[C@H](C(=O)N[C@H](C(=O)O)c4cc(O)cc(O)c4-c4cc3ccc4O)[C@H](O)c3ccc(c(Cl)c3)Oc3cc2cc(c3O[C@@H]2O[C@H](CO)[C@@H](O)[C@H](O)[C@H]2O[C@H]2C[C@](C)(N)[C@H](O)[C@H](C)O2)Oc2ccc(cc2Cl)[C@H]1O [vancomycin] | – | 2 µg/mL | – | 0.5 µg/mL
9 | [H]/N=C(/N)N[C@H]1[C@H](O)[C@@H](O)[C@H](O[C@@H]2O[C@@H](C)[C@](O)(C=O)[C@H]2O[C@@H]2O[C@@H](CO)[C@H](O)[C@@H](O)[C@@H]2NC)[C@@H](N/C(N)=N\[H])[C@@H]1O [streptomycin] | 128 µg/mL | 128 µg/mL | – | –

Reference: US20220313753A1, “BIFIDOBACTERIUM BIFIDUM BACTERIAL STRAIN, THE COMPOSITIONS THEREOF AND RELATED USES” (priority 2019, published 2022)
